Measured values from article PMC10303200 (ACS Central Science, 2023).

Experiments:
Type in all cases: binding
[1] = target: T1, GAL-7 (Homo sapiens, UniProt P47929); assay: COIN-nMS of the GAL-7 homodimer with a mixture of ten glycans (G2, G5-G13), 200 mM ammonium acetate, pH 6.9.; details: SD, n = 8; read-out: Kd (COIN-nMS), Table S4
T1 construct: gene LGALS7; homodimer (monomer MW 14.94 kDa)

[2] = target: T2, DC-SIGN CRD (Homo sapiens, UniProt Q9NNX6); assay: COIN-nMS (submicron emitters) with a mixture of ten glycans (G2, G5, G10, G14-G20), 200 mM ammonium acetate with 2.5 mM calcium salt, pH 7.4.; parameters: gene CD209; carbohydrate recognition domain, residues 250-404, MW 17 794 Da; details: SD, n = 6; read-out: Kd (COIN-nMS), Table S5
T2 sequence (Q9NNX6 250-404): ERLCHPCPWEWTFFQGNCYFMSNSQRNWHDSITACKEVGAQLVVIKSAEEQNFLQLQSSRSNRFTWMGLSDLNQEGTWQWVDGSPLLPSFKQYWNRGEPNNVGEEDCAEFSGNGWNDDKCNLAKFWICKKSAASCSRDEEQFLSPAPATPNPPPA

[3] = target: T1, GAL-7; assay: Direct native ESI-MS of the GAL-7 homodimer with a mixture of ten glycans (G2, G5-G13), 200 mM ammonium acetate, pH 6.9.; details: SD, n = 8; read-out: Kd (nMS), Table S4
[4] = target: T3, GAL-3C (Homo sapiens, UniProt P17931); assay: COIN-nMS with a mixture of ten glycans (G2, G5-G13), 200 mM ammonium acetate, pH 6.9.; parameters: gene LGALS3; C-terminal carbohydrate recognition domain fragment, residues 107-250; details: SD, n = 8; read-out: Kd (COIN-nMS), Table S3
T3 sequence (P17931 107-250): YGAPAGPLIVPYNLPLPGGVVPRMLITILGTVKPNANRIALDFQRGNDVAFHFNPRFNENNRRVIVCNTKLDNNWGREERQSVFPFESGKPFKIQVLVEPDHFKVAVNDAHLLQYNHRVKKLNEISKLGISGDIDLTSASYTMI

[5] = target: T3, GAL-3C; assay: Direct native ESI-MS with a mixture of ten glycans (G2, G5-G13), 200 mM ammonium acetate, pH 6.9.; parameters: gene LGALS3; C-terminal carbohydrate recognition domain fragment, residues 107-250; details: SD, n = 8; read-out: Kd (nMS), Table S3
[6] = target: T2, DC-SIGN CRD; assay: Direct native ESI-MS (submicron emitters) with a mixture of ten glycans (G2, G5, G10, G14-G20), 200 mM ammonium acetate with 2.5 mM calcium salt, pH 7.4.; parameters: gene CD209; carbohydrate recognition domain, residues 250-404, MW 17 794 Da; details: SD, n = 6; read-out: Kd (nMS), Table S5
[7] = target: MAA (Maackia amurensis agglutinin); assay: COIN-CaR-nMS; details: native and all α2-3-linked N-glycan natural libraries and purified 3SL, 3SLN; pH 6.9
[8] = target: RCA-I (Ricinus communis agglutinin) (Ricinus communis, UniProt P06750); details: pH 6.9; read-out: Kd (Native)
[9] = target: T2, DC-SIGN CRD; assay: COIN-nMS affinity measurement; parameters: The carbohydrate recognition domain (CRD) of DC-SIGN (residues 250–404, MW 17 794 Da); made in house; details: glycans present as a mixture (G2, G5, G10, G14-G20); average of six measurements; pH 7.4; read-out: Kd (COIN-nMS)
[10] = target: T2, DC-SIGN CRD; assay: direct nMS affinity measurement; parameters: The carbohydrate recognition domain (CRD) of DC-SIGN (residues 250–404, MW 17 794 Da); made in house; details: glycans present as a mixture (G2, G5, G10, G14-G20); pH 7.4

T1 sequence (P47929 whole entry): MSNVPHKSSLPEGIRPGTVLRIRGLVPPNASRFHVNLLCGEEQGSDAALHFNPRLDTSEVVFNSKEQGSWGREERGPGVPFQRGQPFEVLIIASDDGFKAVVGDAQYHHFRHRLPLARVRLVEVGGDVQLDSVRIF

How did the Kd [1] turn out when CC(=O)N[C@H]1[C@@H](O[C@H]2[C@@H](O)[C@@H](CO)O[C@@H](O[C@H]3[C@H](O)[C@@H](NC(C)=O)C(O)O[C@@H]3CO)[C@@H]2O[C@@H]2O[C@@H](C)[C@@H](O)[C@@H](O)[C@@H]2O)O[C@H](CO)[C@H](O)[C@@H]1O (stereo partly drawn) [G10, α-D-GalNAc(1→3)-[α-L-Fuc(1→2)]-β-D-Gal(1→4)-D-GlcNAc] was run?
The Kd was 437 µM.

And the Kd [2]?
Its Kd is 2920 µM.

And the Kd [3]?
Its Kd is 731 µM.

And the Kd [4]?
Its Kd is 10.9 µM.

What about the Kd [5] of the same molecule?
Its Kd is 17.9 µM.

What about the Kd [6] of the same molecule?
The Kd was 6010 µM.

How did the Kd [2] turn out when OC[C@H]1O[C@H](O[C@@H]2[C@H](O)[C@@H](OC[C@H]3OC(O)[C@@H](O)[C@@H](O[C@H]4O[C@H](CO)[C@@H](O)[C@H](O)[C@@H]4O[C@H]4O[C@H](CO)[C@@H](O)[C@H](O)[C@@H]4O[C@H]4O[C@H](CO)[C@@H](O)[C@H](O)[C@@H]4O)[C@@H]3O)O[C@H](CO[C@H]3O[C@H](CO)[C@@H](O)[C@H](O)[C@@H]3O[C@H]3O[C@H](CO)[C@@H](O)[C@H](O)[C@@H]3O)[C@H]2O)[C@@H](O)[C@@H](O)[C@@H]1O (stereo partly drawn) [G14, α-D-Man-(1→2)-α-D-Man-(1→6)-[α-D-Man-(1→3)]-α-D-Man-(1→6)-[α-D-Man-(1→2)-α-D-Man-(1→2)-α-D-Man-(1→3)]-α-D-Man] was run?
The Kd was 260 µM.

And the Kd [6]?
The Kd was 270 µM.

What does the source list for OC[C@H]1O[C@H](OC[C@H]2O[C@H](OC[C@H]3OC(O)[C@@H](O)[C@@H](O[C@H]4O[C@H](CO)[C@@H](O)[C@H](O)[C@@H]4O[C@H]4O[C@H](CO)[C@@H](O)[C@H](O)[C@@H]4O)[C@@H]3O)[C@@H](O)[C@@H](O[C@H]3O[C@H](CO)[C@@H](O)[C@H](O)[C@@H]3O)[C@@H]2O)[C@@H](O)[C@@H](O)[C@@H]1O (stereo partly drawn) [G16, α-D-Man-(1→3)[α-D-Man(1→6)]-α-D-Man(1→6)[α-D-Man(1→2)-α-D-Man-(1→3)]-α-D-Man]?
Kd [2]: 560 µM; Kd [6]: 810 µM

CC(=O)N[C@H]1[C@H](O[C@H]2[C@@H](O)[C@@H](CO)OC(O)[C@@H]2O)O[C@H](CO)[C@@H](O[C@@H]2O[C@@H](C)[C@@H](O)[C@@H](O)[C@@H]2O)[C@@H]1O[C@@H]1O[C@H](CO)[C@H](O)[C@H](O)[C@H]1O[C@@H]1O[C@@H](C)[C@@H](O)[C@@H](O)[C@@H]1O (stereo partly shown) [G17, blood group antigen G17] was tested. Which Kd [2] did it give?
Its Kd is 550 µM.

What about the Kd [6] of the same molecule?
The Kd was 620 µM.

For CC(=O)N[C@H]1[C@H](O[C@H]2[C@@H](O)[C@@H](CO)O[C@@H](O[C@H]3[C@H](O)[C@@H](O)C(O)O[C@@H]3CO)[C@@H]2O)O[C@H](CO)[C@@H](O[C@@H]2O[C@H](CO)[C@H](O)[C@H](O[C@H]3O[C@H](CO)[C@H](O)[C@H](O)[C@H]3O)[C@H]2O[C@@H]2O[C@@H](C)[C@@H](O)[C@@H](O)[C@@H]2O)[C@@H]1O (stereo partly shown) [G18, blood group antigen G18], which Kd [2] is on record?
Its Kd is 1870 µM.

What about the Kd [6] of the same molecule?
Its Kd is 3330 µM.

For OC[C@H]1O[C@H](OC[C@H]2O[C@H](OC[C@H]3OC(O)[C@@H](O)[C@@H](O)[C@@H]3O)[C@@H](O)[C@@H](O[C@H]3O[C@H](CO)[C@@H](O)[C@H](O)[C@@H]3O)[C@@H]2O)[C@@H](O)[C@@H](O)[C@@H]1O (stereo partly shown) [G19, oligomannose glycan G19], which Kd [2] is on record?
Its Kd is 1500 µM.

What about the Kd [6] of the same molecule?
Its Kd is 1180 µM.

With OC[C@H]1O[C@H](O[C@H]2[C@H](O)[C@@H](O)[C@@H](O[C@H]3[C@H](O)[C@@H](O)[C@@H](O[C@H]4[C@H](O)[C@@H](O)[C@@H](O[C@H]5[C@H](O)[C@@H](O)C(O)O[C@@H]5CO)O[C@@H]4CO)O[C@@H]3CO)O[C@@H]2CO)[C@H](O)[C@@H](O)[C@@H]1O (stereo partly shown) [G20, maltopentaose] as the molecule, how does the Kd [2] read?
Its Kd is 1830 µM.

What about the Kd [6] of the same molecule?
The Kd was 2410 µM.

Which Kd [7] does the source give for CC(=O)N[C@H]1[C@H](O[C@H]2[C@H](O)[C@@H](NC(C)=O)C(O)O[C@@H]2CO[C@@H]2O[C@@H](C)[C@@H](O)[C@@H](O)[C@@H]2O)O[C@H](CO)[C@@H](O[C@@H]2O[C@H](CO[C@H]3O[C@H](CO)[C@@H](O)[C@H](O)[C@@H]3O[C@@H]3O[C@H](CO)[C@@H](O[C@@H]4O[C@H](CO)[C@H](O)[C@H](O)[C@H]4O)[C@H](O)[C@H]3NC(C)=O)[C@@H](O)[C@H](O[C@H]3O[C@H](CO)[C@@H](O)[C@H](O)[C@@H]3O[C@@H]3O[C@H](CO)[C@@H](O[C@@H]4O[C@H](CO[C@]5(C(=O)O)C[C@H](O)[C@@H](NC(C)=O)[C@H]([C@H](O)[C@H](O)CO)O5)[C@H](O)[C@H](O)[C@H]4O)[C@H](O)[C@H]3NC(C)=O)[C@@H]2O)[C@@H]1O (stereo partly shown) [HexNAc4Hex5Fuc1NeuAc1] here?
The Kd was 0.57 ± 0.16 µM.

For CC(=O)N[C@H]1[C@H](O[C@H]2[C@H](O)[C@@H](NC(C)=O)C(O)O[C@@H]2CO[C@@H]2O[C@@H](C)[C@@H](O)[C@@H](O)[C@@H]2O)O[C@H](CO)[C@@H](O[C@@H]2O[C@H](CO[C@H]3O[C@H](CO)[C@@H](O)[C@H](O)[C@@H]3O[C@@H]3O[C@H](CO)[C@@H](O[C@@H]4O[C@H](CO[C@]5(C(=O)O)C[C@H](O)[C@@H](NC(C)=O)[C@H]([C@H](O)[C@H](O)CO)O5)[C@H](O)[C@H](O)[C@H]4O)[C@H](O)[C@H]3NC(C)=O)[C@@H](O)[C@H](O[C@H]3O[C@H](CO)[C@@H](O)[C@H](O)[C@@H]3O[C@@H]3O[C@H](CO)[C@@H](O[C@@H]4O[C@H](CO[C@]5(C(=O)O)C[C@H](O)[C@@H](NC(C)=O)[C@H]([C@H](O)[C@H](O)CO)O5)[C@H](O)[C@H](O)[C@H]4O)[C@H](O)[C@H]3NC(C)=O)[C@@H]2O)[C@@H]1O (stereo partly shown) [HexNAc4Hex5Fuc1NeuAc2], which Kd [7] is on record?
The Kd was 0.39 ± 0.08 µM.

How did the Kd [8] turn out when CC(=O)N[C@H]1[C@H](O[C@H]2[C@H](O)[C@@H](NC(C)=O)C(O)O[C@@H]2CO[C@@H]2O[C@@H](C)[C@@H](O)[C@@H](O)[C@@H]2O)O[C@H](CO)[C@@H](O[C@@H]2O[C@H](CO[C@H]3O[C@H](CO)[C@@H](O)[C@H](O)[C@@H]3O[C@@H]3O[C@H](CO)[C@@H](O[C@@H]4O[C@H](CO)[C@H](O)[C@H](O)[C@H]4O)[C@H](O)[C@H]3NC(C)=O)[C@@H](O)[C@H](O[C@H]3O[C@H](CO)[C@@H](O)[C@H](O)[C@@H]3O[C@@H]3O[C@H](CO)[C@@H](O[C@@H]4O[C@H](CO)[C@H](O)[C@H](O)[C@H]4O)[C@H](O)[C@H]3NC(C)=O)[C@@H]2O)[C@@H]1O (stereo partly shown) [HexNAc4Hex5Fuc1] was run?
The Kd was 1.4 ± 0.4 µM.

For CC(=O)N[C@H]1[C@H](O[C@H]2[C@H](O)[C@@H](NC(C)=O)C(O)O[C@@H]2CO)O[C@H](CO)[C@@H](O[C@@H]2O[C@H](CO[C@H]3O[C@H](CO)[C@@H](O)[C@H](O)[C@@H]3O[C@@H]3O[C@H](CO)[C@@H](O[C@@H]4O[C@H](CO[C@]5(C(=O)O)C[C@H](O)[C@@H](NC(C)=O)[C@H]([C@H](O)[C@H](O)CO)O5)[C@H](O)[C@H](O)[C@H]4O)[C@H](O)[C@H]3NC(C)=O)[C@@H](O)[C@H](O[C@H]3O[C@H](CO)[C@@H](O)[C@H](O)[C@@H]3O[C@@H]3O[C@H](CO)[C@@H](O[C@@H]4O[C@H](CO[C@]5(C(=O)O)C[C@H](O)[C@@H](NC(C)=O)[C@H]([C@H](O)[C@H](O)CO)O5)[C@H](O)[C@H](O)[C@H]4O)[C@H](O)[C@H]3NC(C)=O)[C@@H]2O)[C@@H]1O (stereo partly shown) [HexNAc4Hex5NeuAc2], which Kd [7] is on record?
Its Kd is 0.52 ± 0.2 µM.

For CC(=O)N[C@H]1[C@H](O[C@H]2[C@H](O)[C@@H](NC(C)=O)C(O)O[C@@H]2CO)O[C@H](CO)[C@@H](O[C@@H]2O[C@H](CO[C@H]3O[C@H](CO)[C@@H](O)[C@H](O)[C@@H]3O[C@@H]3O[C@H](CO)[C@@H](O[C@@H]4O[C@H](CO[C@]5(C(=O)O)C[C@H](O)[C@@H](NC(=O)CO)[C@H]([C@H](O)[C@H](O)CO)O5)[C@H](O)[C@H](O)[C@H]4O)[C@H](O)[C@H]3NC(C)=O)[C@@H](O)[C@H](O[C@H]3O[C@H](CO)[C@@H](O)[C@H](O)[C@@H]3O[C@@H]3O[C@H](CO)[C@@H](O[C@@H]4O[C@H](CO[C@]5(C(=O)O)C[C@H](O)[C@@H](NC(=O)CO)[C@H]([C@H](O)[C@H](O)CO)O5)[C@H](O)[C@H](O)[C@H]4O)[C@H](O)[C@H]3NC(C)=O)[C@@H]2O)[C@@H]1O (stereo partly shown) [HexNAc4Hex5NeuGc2], which Kd [7] is on record?
Its Kd is 0.49 ± 0.2 µM.

“α-D-Man-(1→2)-α-D-Man-(1→3)-[α-D-Man-(1→6)-[α-D-Man-(1→2)-α-D-Man-(1→3)]-α-D-Man [Glycan G15]” was tested. Which Kd [9] did it give?
Its Kd is 410 ± 40 µM.

What about the Kd [10] of the same molecule?
Its Kd is 390 ± 50 µM.
